Laboratory results reported in patent publication US8834938B2, “Use of arsenic for cancer therapy protection” (Board of Regents of the University of Texas System, priority 2011, dated 2014).
Structures can show the parent of a compound that is named as a salt. Where two headings read alike, the source gives them in different places. Starred links: 1 amine or outer side, 2 acyl side, 3 side chain; linkers in the order of their positions; H or OH if unused. Positions of bridges follow the written chain, without caps; N, C: chain ends. Non-standard residues stand in square brackets, D forms with d. Residues, ends and D or L forms follow the SMILES beside them. Chains are numbered I, II in the order given. Actinocin(9to1) = Cc1c2oc3c(C)ccc(C(=O)[*:1])c3nc-2c(C(=O)[*:2])c(N)c1=O; NMeV = CN[C@H](C(=O)O)C(C)C; Sar = CNCC(=O)O

Experiments:
[1] = system: small intestine and bone marrow cells; conditions: mouse, in vivo
[2] = system: small intestine and bone marrow cells; conditions: mouse, in vivo; remark: listed apart in the source
[3] = system: Human colon carcinoma cells, SW-480; type: in vivo, mice
[4] = system: Human lung carcinoma cells A549; type: in vivo, mice
[5] = system: Human breast carcinoma cells, MDA-MB-231; type: in vivo, mice
[6] = in vivo; cited from earlier work
[7] = oral; cited from earlier work
[8] = in vivo; cited from earlier work; remark: listed apart in the source
[9] = in vivo; cited from earlier work; remark: listed apart in the source
[10] = in vivo, cited from earlier work
[11] = in vivo; cited from earlier work; remark: listed apart in the source
[12] = oral, 30 mg/m^2 to 100 mg/m^2; cited from earlier work
multiple myeloma = conditions: oral administration; cited from earlier work
[13] = cited from earlier work
[14] = cited from earlier work; remark: listed apart in the source
[15] = system: chronic myelogenous leukemia; conditions: previously untreated chronic myelogenous leukemia; cited from earlier work
certain animal tumors = conditions: in vivo; cited from earlier work
[16] = mice; cited from earlier work
[17] = patients with creatinine clearance >35 mL per minute; cited from earlier work
[18] = 10 mg daily over 2 to 3 hours IV; cited from earlier work
[19] = mouse, in vivo
[20] = design: species or system mice; conditions: mouse, in vivo
[21] = mouse, in vivo; remark: listed apart in the source
Lung = conditions: mouse, in vivo
Heart = conditions: mouse, in vivo
p53 [22] = type: cell-based, human
[23] = design: species or system mice; conditions: mouse, in vivo; remark: listed apart in the source
[24] = mouse, in vivo; remark: listed apart in the source
p53 [25] = experiment: p53 response to irradiation in peripheral blood lymphocytes after arsenic removal; type: in vivo, Mice
Procedure: We next used mice to examine arsenic-mediated modulation of p53 activity in vivo. To this end, we used peripheral blood lymphocytes to monitor the p53 response to irradiation. Mice were fed with water containing arsenic for 3 days. Whole blood was collected from the animals 1, 3, 5, 7, 9, or 11 days after arsenic removal. Lymphocytes were isolated by using the Ficoll method. The cells were cultured for 24 h, then irradiated at a dose of 2 Gy and harvested 3 hours post-treatment. Western analysis was performed. Consistent with the results from cell-based studies, p53 activation by radiation recovered, albeit with a slightly slower kinetics, after arsenic was removed. Radiation-induced p53 accumulation and p21 expression were suppressed at 0 and 1 day […], partially recovered at day 7 and completely back to the untreated level at day 9.

[26] = system: human adult foreskin keratinocytes; conditions: cited from earlier work
[27] = mouse, in vivo; remark: listed apart in the source
p53 [28] = type: cell-based
p53 [29] = experiment: C57BL/6 WT vs p53 R172P knock-in mice, protection by arsenic; type: in vivo; conditions: in contrast with wild type littermates
[30] = 5FU 30 mg/kg i.v. daily for one week
[31] = after arsenic removal, 3 days arsenic water

O=c1[nH]cc(F)c(=O)[nH]1 [5FU, Fluorouracil]
Damage to small intestine and bone marrow cells [1]: severe damages | Bone marrow cellularity [2]: Bone marrow cell exhaustion | Damage to the small intestine [2]: severe damages | Tumor volume response [3, 30]: marked tumor regression | Tumor volume response ([4]; 5FU 30 mg/kg intravenous daily for one week): marked tumor regression | Tumor volume response [5, 30]: marked tumor regression

Cc1c2oc3c(C)ccc(C(=O)N[C@@H]4C(=O)N[C@H](C(C)C)C(=O)N5CCC[C@H]5C(=O)N(C)CC(=O)N(C)[C@@H](C(C)C)C(=O)O[C@@H]4C)c3nc-2c(C(=O)N[C@@H]2C(=O)N[C@H](C(C)C)C(=O)N3CCC[C@H]3C(=O)N(C)CC(=O)N(C)[C@@H](C(C)C)C(=O)O[C@@H]2C)c(N)c1=O [Actinomycin D] (I: T[dV]P[Sar][NMeV] / II: T[dV]P[Sar][NMeV]; ester I:1-I:C, II:1-II:C; linker I:N-II:N via Actinocin(9to1))
Blood-brain barrier passage [6]: does not pass the blood-brain barrier | Dose excreted intact into the bile [6]: Half of the dose | Dose excreted intact into the urine [6]: 10% | Half-life [6]: about 36 hr

O=C(O)CCCc1ccc(N(CCCl)CCCl)cc1 [Chlorambucil, 4-(bis(2-chlorethyl)amino)benzenebutanoic acid]
Absorption from the gastrointestinal tract [7]: rapidly and completely absorbed

N.N.[Cl][Pt][Cl] [Cisplatin]
Oral absorption [8]: not absorbed orally

O.O=P1(N(CCCl)CCCl)NCCCO1 (centres unmarked) [Cyclophosphamide, 2H-1,3,2-Oxazaphosphorin-2-amine, N,N-bis(2-chloroethyl)tetrahydro-, 2-oxide, monohydrate]
Stability in the gastrointestinal tract [9]: stable in the gastrointestinal tract

COc1cccc2c1C(=O)c1c(O)c3c(c(O)c1C2=O)C[C@@](O)(C(C)=O)C[C@@H]3O[C@H]1C[C@H](N)[C@H](O)[C@H](C)O1 [Daunorubicin, 5,12-Naphthacenedione, (8S-cis)-8-acetyl-10-(3-amino-2,3,6-trideoxy-a-L-lyxo-hexanopyranosyl)oxy)-7,8,9,10-tetrahydro-6,8,11-trihydroxy-10-methoxy hydrochloride]
Oral absorption ([10]; po): poor | Half-life of elimination [10]: about 19 hr

COc1cccc2c1C(=O)c1c(O)c3c(c(O)c1C2=O)C[C@@](O)(C(=O)CO)C[C@@H]3O[C@H]1C[C@H](N)[C@H](O)[C@H](C)O1 [Doxorubicin, 5,12-Naphthacenedione, (8s-cis)-10-((3-amino-2,3,6-trideoxy-a-L-lyxo-hexopyranosyl)oxy)-7,8,9,10-tetrahydro-6,8,11-trihydroxy-8-(hydroxyacetyl)-1-methoxy-hydrochloride]
Absorption [11]: absorbed poorly | Elimination half-life [11]: about 30 hr | Excreted into the urine [11]: a few percent

O=NN(CCCl)C(=O)NC1CCCCC1 [Lomustine, 1-(2-chloro-ethyl)-3-cyclohexyl-1 nitrosourea]
Radioactivity excreted as degradation products within 24 hours [12]: about half

N[C@@H](Cc1ccc(N(CCCl)CCCl)cc1)C(=O)O [Melphalan, 4-(bis(2-chloroethyl)amino)-L-phenylalanine]
Patients showing a favorable response (multiple myeloma): one third to one half

CO[C@@]12[C@H](COC(N)=O)C3=C(C(=O)C(C)=C(N)C3=O)N1C[C@@H]1N[C@@H]12 [Mitomycin]
Time required to reduce the serum concentration by 50% ([13]; 30 mg bolus injection): 17 min | Dose excreted unchanged in the urine ([13]; in vivo): Approximately 10%

CC[C@]1(O)C[C@@H]2CN(CCc3c([nH]c4ccccc34)[C@@](C(=O)OC)(c3cc4c(cc3OC)N(C)[C@H]3[C@@](O)(C(=O)OC)[C@H](OC(C)=O)[C@]5(CC)C=CCN6CC[C@]43[C@@H]65)C2)C1 [Vinblastine]
Absorption after oral administration ([14]; in vivo): Unpredictable absorption | Dose recovered in the feces after biliary excretion ([14]; in vivo): about 10% | Plasma protein binding ([14]; in vivo): bind to plasma proteins | Plasma half-life after distribution (first) ([14]; intravenous injection): approximately 1 hours | Plasma half-life after distribution (second) ([14]; intravenous injection): ~72000 s | Peak concentration in plasma ([14]; usual clinical doses): approximately 0.4 mM

CC[C@]1(O)C[C@H]2CN(CCc3c([nH]c4ccccc34)[C@@](C(=O)OC)(c3cc4c(cc3OC)N(C=O)[C@H]3[C@@](O)(C(=O)OC)[C@H](OC(C)=O)[C@]5(CC)C=CCN6CC[C@]43[C@@H]65)C2)C1 [Vincristine]
Absorption after oral administration ([14]; in vivo): Unpredictable absorption | Plasma protein binding ([14]; in vivo): bind to plasma proteins | Terminal half-life ([14]; plasma): about 24 hours

CS(=O)(=O)OCCCCOS(C)(=O)=O [busulfan, 1,4-butanediol dimethanesulfonate]
Adults obtaining hematologic remission [15]: Approximately 90%

COc1cccc2c1C(=O)c1c(O)c3c(c(O)c1C2=O)C[C@@](O)([C@H](C)O)C[C@@H]3O[C@H]1C[C@H](N)[C@H](O)[C@H](C)O1 [daunorubicinol]
Half-life of active metabolite [10]: about 27 hr

N[C@H](Cc1ccc(N(CCCl)CCCl)cc1)C(=O)O [medphalan]
Activity against certain animal tumors relative to L-isomer (certain animal tumors): less active

Bleomycin
Concentration in hematopoietic tissue [16]: low concentrations | Concentration in skin, lungs, kidneys, peritoneum, and lymphatics [16]: high concentrations | Serum or plasma terminal elimination half-life [17]: approximately 115 minutes

arsenic (III) oxide [Arsenic Trioxide]
Plasma arsenic mean peak level [18]: 6.85 µmol/L | t1/2α [18]: 0.89 ± 0.29 h | t1/2β [18]: 12.13 ± 3.31 h

sodium arsenite
Damage to small intestine and bone marrow cells with arsenic pretreatment [1]: significantly inhibited | Body weight change [19]: little loss of body weight | Therapy-induced body weight loss with arsenic pretreatment [19]: effectively prevented | 5FU damage to the small intestine with arsenic pretreatment [2]: significantly ameliorated | 5FU-induced decrease of bone marrow cellularity with arsenic pretreatment [2]: considerably alleviated | p53-dependent tissue damages induced by 5FU treatment [20]: significantly blunted | Dose showing very clear toxicity by itself [21]: > 3500 μg/kg body weight | Grade of Damage, Lung (Lung): Zero | Grade of Damage, Heart (Heart): Zero | Effect of arsenic pretreatment on 5FU-induced tumor suppression ([3]; mouse, in vivo): little effect | Effect on growth of the implanted tumors ([3]; mouse, in vivo): did not have any detectable effect | Time after arsenic removal until p53 activation almost completely recovered (p53 [22]): 7 days | Time in arsenic-free media until radiation-induced p53 activation detectable (p53 [22]): 5 days | Effect of arsenic pretreatment on 5FU-induced tumor suppression ([4]; mouse, in vivo): little effect | Effect of arsenic pretreatment on irradiation-induced tumor suppression ([4]; mouse, in vivo): little effect | Effect on growth of the implant tumors ([4]; mouse, in vivo): did not have any detectable effect | Duration of pretreatment adequate for optimal protection [23]: 3 days | Protection with 1 and 2 days pretreatment [23]: less than 3-day pretreatment | Protection with pretreatments longer than 3-day [23]: no further increase of benefits | 5FU-induced body weight loss with arsenic pretreatment [24]: almost completely prevented | Body weight change [24]: little loss of body weight | Radiation-induced p53 accumulation and p21 expression (p53 [25]; 0 and 1 day, lymphocytes irradiated 2 Gy ex vivo): suppressed | Day of complete return to untreated level of p53 accumulation and p21 expression (p53 [25]; [31]): 9 days | Day of partial recovery of radiation-induced p53 accumulation and p21 expression (p53 [25]; [31]): 7 days | Concentration resulting in induced proliferation with enhanced NF-κB and AP-1 activity [26]: ≤ 5 µM | Concentration with statistically significant decrease of cell viability [26]: ≥ 10 µM | 5FU-induced body weight loss with arsenic pretreatment [27]: almost completely prevented | Effect of arsenic pretreatment on 5FU-induced tumor suppression ([5]; mouse, in vivo): little effect | Effect on Hdm2 and p53 distribution (p53 [28]): upregulation of Hdm2 and accumulation of p53 in the cytoplasm | p53 response to genotoxic stress (p53 [28]): impaired p53 activation and apoptosis | Protection against toxicity in p53 mutant mice (p53 [29]): little protection
